Experimental data published in publication PMC3634466, “Cantharidin Impedes Activity of Glutathione S-Transferase in the Midgut of Helicoverpa armigera Hübner” (International Journal of Molecular Sciences, 2013).

Tests used:
[1] = target: T1, HaGST (recombinant rHaGST, delta-class glutathione S-transferase; GenBank EF033109 / ABK40535) (Helicoverpa armigera, UniProt A0MSN0)
T1 sequence (A0MSN0 1-220): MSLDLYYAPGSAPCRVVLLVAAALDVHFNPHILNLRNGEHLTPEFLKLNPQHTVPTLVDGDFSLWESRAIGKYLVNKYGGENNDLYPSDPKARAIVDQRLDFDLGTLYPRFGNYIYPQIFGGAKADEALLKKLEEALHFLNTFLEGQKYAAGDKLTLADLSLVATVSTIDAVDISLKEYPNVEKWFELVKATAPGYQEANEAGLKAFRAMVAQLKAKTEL

[2] = target: T1, HaGST (recombinant rHaGST, delta-class glutathione S-transferase; GenBank EF033109 / ABK40535); assay: GSH/CDNB conjugation assay at […] nm with purified rHaGST; Lineweaver-Burk plot; assay type: biochemical; set-up: His-tagged full-length rHaGST expressed from pET-28a in E. coli BL-21 (DE-3), Ni-NTA purified; 220 residues

Structure (SMILES) | enzyme kinetics of purified rHaGST with variable GSH (Lineweaver-Burk), CDNB as [1] | IC50 [2] [µM]
N[C@@H](CCC(=O)N[C@@H](CS)C(=O)NCC(=O)O)C(=O)O [GSH, glutathione] | the rHaGST activity was calculated under different concentrations of GSH | –
C[C@@]12C(=O)OC(=O)[C@]1(C)[C@H]1CC[C@@H]2O1 [cantharidin] | – | 12.5
